# Reference: patent US4080467A, “Pharmaceutical compositions comprising 1,3-dithiolan-2-ylidene malonate derivatives” (Nihon Nohyaku Co., Ltd., priority 1976, dated 1978)
# Columns and labels:
# [1] = test system: Acute Liver Damage associated with Centrilobular Necrosis (carbon tetrachloride); assay: Protective effect on acute liver damage associated with centrilobular necrosis (carbon tetrachloride model); format: in vivo, mice (four-week-old male, dd strain); conditions: 250 mg/kg oral 6 h before CCl4, average of 5 to 6 mice; for p-GPT (plasma glutamic-pyruvic transaminase activity): 24 h after CCl4, values over 1,000 regarded as 1,000; for Liver Damage Index: 0 normal, 2 slightly recognized, 4 clearly observable damage, 6 heavy damage
# Text: Carbon tetrachloride (CCl4) administration induces centrilobular necrosis of the liver associated with loss of diphosphopyridine nucleotide, hepatic glycogen, coenzyme A and increase in neutral fat. Release of several enzymes from the hepatocytes, and increases of enzyme activities in the plasma are recognized as the result of the damage of the liver. A suitable means for evaluating the degree of damage induced by CCl4 or the degree of protection afforded by drugs is to study the plasma glutamic-pyruvic transaminase (p-GPT) activity.
# Method: The test compounds were dissolved or suspended in olive oil and administered orally at the dose of 250 mg/kg to the mice (Four-week-old male mice-dd strain). After 6 hours, CCl4 was administered orally (0.05 ml/kg as olive oil solution). Animals were killed 24 hours after CCl4 administration, and the liver was grossly observed. The plasma was obtained by centrifugation. Activities of p-GPT were determined by the method of Reitman and Frankel and expressed in Karmen units.
# Score for liver damage was as follows: […]
# 4 Clearly observable damage
# Each figure indicates average of 5 to 6 mice. Values of p-GPT over 1,000 Karmen unit regarded as 1,000 for calculation of average for convenience.
# [2] = test system: fatty liver (carbon tetrachloride); assay: Therapeutic effect on fatty liver (carbon tetrachloride model); format: in vivo, male rat (35 week-old, SD strain); conditions: for Degree of fatty liver (histopathological examination): 10 days, one symbol per animal
# Description: Carbon tetrachloride also induces fatty liver, but the picture of disease differs from the case of ethionine-induced fatty liver. Carbon tetrachloride is generally considered to damage microsome and thereby to inhibit protein synthesis and induce fatty liver.
# Carbon tetrachloride was subscutaneously administered to 35 week-old male rat (SD strain) for 4 days at the dose of 1 ml/kg. The treated animals were left for 3 days after the last administration to maximize the manifestation of fatty liver.
# Administration of the compounds of this invention was commenced on the fourth day after the administration of carbon tetrachloride was completed. It was orally given everyday for 10 days at the dose of 50 or 250 mg/kg. On the 11th day, the animals were sacrificed. The therapeutic effect was evaluated by determining the content of lipid in the liver (triglyceride and total lipid) and examining the histopathological changes. Triglyceride and total lipid were determined colorimetrically by chromotropic acid method and Bragdon's oxidation method, respectively.
# Indices for the histopathological change is as follows.
# [3] = Effect on glucose metabolism (blood sugar after glucose load); format: in vivo, mice; conditions: for Blood Sugar: 250 mg/kg oral 6 h before glucose 4.0 g/kg
# Description: The test compounds dissolved in olive oil and administered orally at the dose of 250 mg/kg to the mice. After 6 hours, 4.0 g/kg of glucose was orally administered. The same amount of glucose was given to the control animals. 0.02 ml of blood was taken from caudal vein of the mice at 30, 60, 90 and 120 min. after glucose administration. Blood sugar was measured by the procedure of Somogyi-Nelson. Number of animals used was 5 to 6 mice for each treatment.
# [4] = test system: bile flow and biliary salt; assay: Cholagogic action: bile flow and excretion of biliary salt; format: in vivo, male rat (4 week-aged, SD-JCL strain); conditions: 200 mg/kg oral; for bile flow / excretion of biliary salt: before treatment = 100
# Description: The male rat (4 week-aged, SD-JCL strain) was anesthetized with sodium pentobarbital (37.5 mg/kg, intraperitoneal injection). The abdominal cavity was opened through a midline incision. The common bile duct was catheterized with polyethylene tube o.d. 0.8 mm. The catheter was brought to the outside through the abdominal incision wound prior to closing. Bile was collected from the catheter continuously with time intervals of one hour. The quantity of bile produced in one hour was determined by weighing and that of biliary salt was determined by enzymatic method (Ikagaku Jikkenho Koza 1B, Biological Constituents II, edited by Tamio YAMAKAWA). The amount of biliary salts was represented as cholic acid equivalent.
# In the representation of the results, the quantities of bile and biliary salts produced in one hour prior to the administration of drug were taken as 100. The compound of this invention was orally administered at the dose of 200 mg/kg. As reference anethol trithion was used.
# [5] = 50 mg/kg oral everyday for 10 days
# [6] = 250 mg/kg oral everyday for 10 days
SMILES,p-GPT (plasma glutamic-pyruvic transaminase activity) [1] [Karmen units],Liver Damage Index [1],further results
COC(=O)C(C(=O)OC)=C1SCCS1 [Compound 1],200,2.2,
"CCCOC(=O)C(C(=O)OCCC)=C1SCCS1 [Compound 3, Di-n-propyl 1,3-dithiolan-2-ylidene malonate]",26,1.0,
CCCCOC(=O)C(C(=O)OCCCC)=C1SCCS1 [Compound 5],322,3.0,
CC(C)COC(=O)C(C(=O)OCC(C)C)=C1SCCS1 [Compound 6],26,0.5,Degree of fatty liver (histopathological examination) ([2]; 50 mg/kg oral): ± ± and ± ± + ±; Degree of fatty liver (histopathological examination) ([2]; 250 mg/kg oral): ± - - - ± ±
CCC(C)OC(=O)C(C(=O)OC(C)CC)=C1SCCS1 (stereo not shown) [Compound 7],102,1.2,
CC(C)(C)OC(=O)C(C(=O)OC(C)(C)C)=C1SCCS1 [Compound 8],230,1.2,
CCCCCOC(=O)C(C(=O)OCCCCC)=C1SCCS1 [Compound 9],550,3.2,
CC(C)CCOC(=O)C(C(=O)OCCC(C)C)=C1SCCS1 [Compound 10],350,3.3,
CSC(=O)C(C(=O)SC)=C1SCCS1 [Compound 11],750,2.5,
CCSC(=O)C(C(=O)SCC)=C1SCCS1 [Compound 12],36,1.0,Blood Sugar (percent of 0 min value) ([3]; 0 min): 100%; Blood Sugar ([3]; 0 min): 141 ± 11.3 mg/dL; Blood Sugar ([3]; 30 min): 264 ± 21.5 mg/dL; Blood Sugar ([3]; 60 min): 225 ± 17.2 mg/dL; Blood Sugar ([3]; 90 min): 167 ± 15.6 mg/dL; Blood Sugar ([3]; 120 min): 142 ± 13.2 mg/dL; Blood Sugar (percent of 0 min value) ([3]; 30 min): 187%; Blood Sugar (percent of 0 min value) ([3]; 60 min): 160%; Blood Sugar (percent of 0 min value) ([3]; 90 min): 118%; Blood Sugar (percent of 0 min value) ([3]; 120 min): 100%
CC(C)SC(=O)C(C(=O)SC(C)C)=C1SCCS1 [Compound 13],105,1.4,Degree of fatty liver (histopathological examination) ([2]; 50 mg/kg oral): ± ± and ± ± ± + ±; Degree of fatty liver (histopathological examination) ([2]; 250 mg/kg oral): - ± and - ± ± ±
CCCCSC(=O)C(C(=O)SCCCC)=C1SCCS1 [Compound 14],241,1.4,
"COCCOC(=O)C(C(=O)OCCOC)=C1SCCS1 [Compound 15, di(methoxyethyl) 1,3-dithiolan-2-ylidene malonate]",85,1.5,
CCOCCOC(=O)C(C(=O)OCCOCC)=C1SCCS1 [Compound 16],150,1.0,
CCCCOCCOC(=O)C(C(=O)OCCOCCCC)=C1SCCS1 [Compound 17],242,3.0,
CCOC(=O)C(C(=O)OC)=C1SCCS1 [Compound 18],240,1.4,
"COC(=O)C(C(=O)OC(C)C)=C1SCCS1 [Compound 19, Methyl isopropyl 1,3-dithiolan-2-ylidene malonate]",89,1.0,
COC(=O)C(C(=O)OCC(C)C)=C1SCCS1 [Compound 20],62,0.2,bile flow ([4]; 1 hour after treatment): 113±4.3; excretion of biliary salt ([4]; 1 hour after treatment): 104±11; bile flow ([4]; 2 hours after treatment): 112±8.2; excretion of biliary salt ([4]; 2 hours after treatment): 119±13; bile flow ([4]; 3 hours after treatment): 106±6.3; excretion of biliary salt ([4]; 3 hours after treatment): 120±17; bile flow ([4]; 4 hours after treatment): 113±8.8; excretion of biliary salt ([4]; 4 hours after treatment): 113±18; bile flow ([4]; 5 hours after treatment): 93±3.8; excretion of biliary salt ([4]; 5 hours after treatment): 82±7.3; Amount of total biliary salts excreted for 5 hours relative to control ([4]; versus control): 1.55 times; Quantity of total excreted bile for 5 hours relative to control ([4]; versus control): 1.14 times
CC(C)COC(=O)C(C(=O)OC(C)C)=C1SCCS1 [Compound 23],102,1.0,
CCOCCOC(=O)C(C(=O)OC(C)C)=C1SCCS1 [Compound 24],152,1.2,Blood Sugar (percent of 0 min value) ([3]; 0 min): 100%; Blood Sugar ([3]; 0 min): 135 ± 13.2 mg/dL; Blood Sugar ([3]; 30 min): 248 ± 20.2 mg/dL; Blood Sugar ([3]; 60 min): 214 ± 18.8 mg/dL; Blood Sugar ([3]; 90 min): 173 ± 24.4 mg/dL; Blood Sugar ([3]; 120 min): 140 ± 16.3 mg/dL; Blood Sugar (percent of 0 min value) ([3]; 30 min): 184%; Blood Sugar (percent of 0 min value) ([3]; 60 min): 158%; Blood Sugar (percent of 0 min value) ([3]; 90 min): 128%; Blood Sugar (percent of 0 min value) ([3]; 120 min): 104%
CCOCCOC(=O)C(C(=O)OCC)=C1SCCS1 [Compound 25],85,1.0,
CCOC(=O)C(C(=O)SC(C)C)=C1SCCS1 [Compound 27],18,0.4,
CCCCSC(=O)C(C(=O)OCC)=C1SCCS1 [Compound 28],31,0.8,
COC(=O)C(C(=O)OC)=C1SCC[S+]1[O-] (stereo not shown) [Compound 29],222,0.6,
CC(C)COC(=O)C(C(=O)OCC(C)C)=C1SCC[S+]1[O-] (stereo not shown) [Compound 32],180,1.0,"Total lipid [2, 5]: 112.4 ± 12.3 mg/g-liver; Triglyceride [2, 5]: 48.3 ± 7.6 mg/g-liver; Total lipid [2, 6]: 77.2 ± 8.7 mg/g-liver; Triglyceride [2, 6]: 26.3 ± 4.2 mg/g-liver"
CC(C)(C)OC(=O)C(C(=O)OC(C)(C)C)=C1SCC[S+]1[O-] (stereo not shown) [Compound 33],212,1.4,
COC(=O)C(C(=O)OCC(C)C)=C1SCC[S+]1[O-] (stereo not shown) [Compound 34],102,1.0,
CCOC(=O)C(C(=O)OC(C)C)=C1SCC[S+]1[O-] (stereo not shown) [Compound 35],152,0.8,
CCOCCOC(=O)C(C(=O)OC(C)C)=C1SCC[S+]1[O-] (stereo not shown) [Compound 36],210,1.4,
"NC(=O)CCCCC1CCSS1 (stereo not shown) [Thioctic acid amide, thioctic acid amide, reference compound]",763,4.8,
